Data as given in PMC5729604, “Dual inhibitors of hepatitis C virus and hepatocellular carcinoma: design, synthesis and docking studies” (Future Science OA, 2017).

Experiments:
[1] = test system: HepG2 cells infected with hepatitis C virus; experiment: In vitro anti-HCV screening, qualitative RT-PCR of viral RNA; format: cell-based, HCV genotype-4; conditions: at the used dose (below LD0 on HepG2 and PBMCs), 72 h; Positive = disappearance of viral RNA-amplified product (174 bp)
Source text: The safe compounds on RBCs (5a-g, 5i-l, 5p-r, 5v-w, 6b-g) were screened for their in vitro anti-HCV activity using the HCC HepG2 cell line infected with the HCV. Monitoring of the HCV viremia pre- and post-antiviral therapy through the detection of viral RNA using qualitative reverse transcription-PCR (RT-PCR) was adopted in the present investigation. This technique was reported to be the most frequently used, reliable and sensitive technique. Inhibition of viral replication was detected by amplification of viral RNA segments by the RT-PCR technique both in the cultivated infected cells alone (as a positive control) and at the specified dose for each test compound at optimal temperature. The test compound was considered to be active when it can inhibit the viral replication inside the HCV-infected HepG2 cells, as evidenced by the disappearance of the viral RNA-amplified products detected by the RT-PCR (compared with positive control).
The used concentration of each compound was chosen to be lower than the LD0 on HepG2 cells. Therefore, 100% viability of HepG2 cells was maintained, to make sure that any inhibitory effect was due to anti-HCV activity rather than cytotoxic activity on HepG2 cells. Moreover, the used concentrations were also chosen to be lower than the LD0 on PBMCs. Consequently, these doses could be used for inhibition of HCV in normal cells infected with the virus.
HepG2 cells were washed twice in RPMI-1640 medium supplemented with 200 μM L-glutamine and […] HEPES buffer. The cells were suspended at 12 × 10^4 cells/ml in RPMI culture medium (RPMI supplemented medium and 10% FBS). The appropriate number of cells to be used was chosen to be 12 × 10^3 cells/well (100 μl of the prepared suspension), and the cells were left to adhere on the polystyrene […] plates in an incubator at 37°C, 5% CO2 and 95% humidity for 24 h. The cells were washed once using RPMI supplemented medium, then infected with 2% HCV-infected serum (the used serum was a pole of ten patients infected with HCV genotype-4 with viral loads: 3.2–9 million IU/ml, G4 HCV RNA) in RPMI culture medium containing 8% FBS. The used dose of each compound was chosen so as to maintain 100% viability of the HepG2 cell line (the dose was lower than the LD0 of each compound on HepG2 cells as calculated from the in vitro anticancer screening). It was reported that, cultured HepG2 cells lost their biotransformation activity due to decrease in cytochrome (CYP) transcription. This waived its effect on the compounds stability during the test. Negative control is HepG2 cells with culture medium without addition of HCV infected serum or addition of tested compounds. Positive control is HepG2 cells with culture medium and infected HCV serum but without addition of tested compounds. After addition of the compounds, the plates were incubated at 37°C, 5% CO2 and 95% humidity for 72 h, followed by RNA extraction. The RNA strand was detected by RT-PCR using HCV-specific primers to the […] region of the virus.
RNA was extracted from HepG2 cells using the method described by El-Awady et al.. Culture cells were mixed with 200 μl of 4 mol/l guanidinium isothiocyanate (Fischer Bioreagents) containing 25 mmol/l sodium citrate (MP Biomedicals, CA, USA), 0.5% sarkosyl (Fischer Bioreagents), 0.1 mol/l β-mercaptoethanol (MP Biomedicals), and 100 μl sodium acetate (Merck). The lysed cells were mixed with an equal volume of phenol, chloroform and isoamyl alcohol (25:24:1, pH 4; Fischer Bioreagents). After vortexing, the mixture was centrifuged (14,000 r.p.m. for 10 min) at 4°C. The aqueous layer was collected and mixed with an equal volume of isopropanol (Acros Organics, Geel, Belgium). After incubation at -20°C overnight, RNA was precipitated by centrifugation (14,000 r.p.m. for 30 min) at 4°C, and the precipitated RNA was washed twice with 70% ethanol. […]

[2] = test system: human peripheral blood mononuclear cells (PBMCs); format: cell-based; conditions: 72 h
Experimental: The safe compounds on RBCs (5a-g, 5i-l, 5p-r, 5v-w, 6b-g) were subjected to the in vitro cytotoxicity assay on human peripheral blood mononuclear cells (PBMCs). Viability of cells was measured using neutral red uptake assay as described by Borenfreund and Puerner to determine the concentrations of each compound that were not cytotoxic. The results were interpreted to calculate both the lethal concentration that kills 50% of cells (LD50) and the maximum safe concentration that causes 100% viability (LD0) of each compound using GraphPad InStat 3.0 software (Figure 6 & Supplementary Table 3).
The PBMCs were isolated by density gradient centrifugation technique as described by Boyum. Blood samples were freshly collected into heparinized or ethylenediaminetetraacetic acid sterile tubes. Blood was diluted using equal volume of RPMI-1640 medium containing 25 mM HEPES and then layered over equal volume of Ficoll-Pague™ Plus (Fisher BioReagents™ Lymphocyte Separation Medium-LSM, PA, USA) and centrifuged (2000 r.p.m. for 30 min at acceleration and deceleration speeds zero & zero) at room temperature. The buffy mononuclear cell layer was collected using sterile Pasteur pipette into 50 ml sterile Falcon tube and washed twice in phosphate-buffered saline (Sigma-Aldrich) using centrifugation (1650 r.p.m. for 5 min). The isolated PBMCs viability was determined by hemocytometer count using the trypan blue exclusion method. The PBMCs were resuspended at 1 × 10^6 cells/ml in RPMI-1640 medium containing 25 mM HEPES supplemented with 10% heat-inactivated FBS. The appropriate number of cells was chosen to be 1 × 10^5 cells/well (100 μl of the prepared suspension).
A 2 mg/ml stock solution of each compound was prepared in DMF and filtered using a 0.2 μM syringe filter. The desired concentrations (20, 10, 5, 2.5 and 1.25 μg/ml) were prepared using serial dilution in a 96-well plate. Compound wells were prepared by adding 100 μl of the previously prepared concentrations to a suspension of 1 × 10^5 PBMCs in 100 μl culture media. Parallel concentrations of the solvent were prepared to be used as controls. Control wells were prepared by adding 100 μl culture media to a suspension of 1 × 10^5 PBMCs in 100 μl culture media. Blank wells contained 200 μl of culture media only (without cells or compound solution). Each set of samples was pipetted in duplicate. The plate was then gently shaken then incubated at 37°C, 5% CO2 for 72 h.
After incubation, neutral red assay was performed as described previously, and surviving cell fraction was calculated according to the previously mentioned equation. Also, the results were interpreted to calculate both the lethal concentration that kills 50% of cells (LD50) and the maximum safe concentration that cause 100% viability (LD0) of each compound using GraphPad InStat 3.0 software.

SMILES | Result (anti-HCV screening) [1] | (LD0) PBMCs [2] [µg/mL] | LD0 [2] [µg/mL] | LD50 [2] [µg/mL] | LD50 (PBMCs) [2] [µg/mL] | LD0 on PBMCs [2]
CC(=NN=C1SC(=C2C(=O)Nc3ccccc32)C(=O)N1c1ccc(Cl)cc1)c1cc2ccccc2o1 [Compound 6b, 2-[1-(Benzofuran-2-yl)ethylidenehydrazono]-5-(2-oxoindolin-3-ylidene)-3-(4-chlorophenyl)thiazolidin-4-one] | Negative | 18.18 | 18.18 | 61.46 | – | –
COc1ccc(N2C(=O)C(=C3C(=O)Nc4ccccc43)SC2=NN=C(C)c2cc3ccccc3o2)cc1 [Compound 6c, 2-[1-(Benzofuran-2-yl)ethylidenehydrazono]-5-(2-oxoindolin-3-ylidene)-3-(4-methoxyphenyl)thiazolidin-4-one] | Negative | 11.41 | 11.41 | 28.67 | 28.67 | –
CC(=NN=C1SC(=C2C(=O)Nc3ccccc32)C(=O)N1C1CCCCC1)c1cc2ccccc2o1 [Compound 6d, 2-[1-(Benzofuran-2-yl)ethylidenehydrazono]-5-(2-oxoindolin-3-ylidene)-3-cyclohexylthiazolidin-4-one] | Negative | 5.21 | 5.21 | 14.32 | 14.32 | –
CC(=NN=C1SC(=C2C(=O)Nc3ccccc32)C(=O)N1c1ccccc1)c1nc2ccccc2[nH]1 [Compound 6e, 2-[1-(1H-Benzimidazole-2-yl)ethylidenehydrazono]-5-(2-oxoindolin-3-ylidene)-3-phenylthiazolidin-4-one] | Negative | 19.22 | 19.22 | 329.03 | – | –
CC(=NN=C1SC(=C2C(=O)Nc3ccccc32)C(=O)N1c1ccc(Cl)cc1)c1nc2ccccc2[nH]1 [Compound 6f, 2-[1-(1H-Benzimidazole-2-yl)ethylidenehydrazono]-5-(2-oxoindolin-3-ylidene)-3-(4-chlorophenyl)thiazolidin-4-one] | Negative | 253.34 | 253.34 | 1369.42 | – | relatively high LD0 values
COc1ccc(N2C(=O)C(=C3C(=O)Nc4ccccc43)SC2=NN=C(C)c2nc3ccccc3[nH]2)cc1 [Compound 6g, 2-[1-(1H-Benzimidazole-2-yl)ethylidenehydrazono]-5-(2-oxoindolin-3-ylidene)-3-(4-methoxyphenyl)thiazolidin-4-one] | Negative | 14.41 | 14.41 | 136.76 | – | –
